Measurements as given in patent publication US20030018079A1, “Treatment” (priority 2000, published 2003).

Experiment: Studies 004 and 005 together: timolol run-in and comparison of patient groups
Type: in vivo, patients
Conditions: timolol run-in period before baseline
Method: A sub-population of 76 individuals in a population of total 854 patients enrolled into two different studies of German patients (004) and US patients (005) were identified at baseline as having some degree of abnormality to the optic nerve head together with a glaucomatous visual field defect and were treated with a fixed combination (FC) of latanoprost and timolol. Both studies were based on a randomized double-masked parallel group design. In both studies, a fixed combination (FC) of latanoprost and timolol was administered to a group of patients with optic nerve head damage and visual field loss (i.e. glaucomatous field defects) and to groups of patients without any such detected damages, but with an elevation of IOP. Patient demography and baseline characteristics in patients with and without optic nerve head damages and glaucomatous field defects are shown in Table 2.1.
The patients is the studies received one drop in the morning of a fixed combination of latanoprost (50 μg/ml) and timolol (5 mg/ml) during the study duration of 26 weeks. The exact composition of fixed combination is disclosed in Table 1. At baseline, IOP assessments were made at 08:00, 10:00, and 16:00. Measurements at the same time-points were subsequently made at scheduled clinic visits at Week 2, Week 13, and Week 26. Additionally, an 08:00 measurement was also obtained at Week 6. […]

Structure (SMILES): CC(C)(C)NC[C@H](O)COc1nsnc1N1CCOCC1 [timolol]
- decrease in IOP: approximately 5 mm Hg
